# Assay results published in ChEMBL document CHEMBL1926681, “Novel inhibitors of epidermal growth factor receptor: (4-(Arylamino)-7H-pyrrolo[2,3-d]pyrimidin-6-yl)(1H-indol-2-yl)methanones and (1H-indol-2-yl)(4-(phenylamino)thieno[2,3-d]pyrimidin-6-yl)methanones” (Bioorg Med Chem, 2012).
# Active and inactive are the calls of the source. No cut-off for these calls is given here.
# Experiments:
# [1] = Cytotoxicity against human PAXF 1657L cells after 4 days by propidium iodide staining-based fluorometric analysis; format: functional, cell-based; details: 96 h
# NCI-H460 = assay: Cytotoxicity against human H460 cells after 4 days by propidium iodide staining-based fluorometric analysis; format: functional, cell-based; details: NCI-H460, 96 h
# PANC-1 = assay: Cytotoxicity against human PANC1 cells after 4 days by propidium iodide staining-based fluorometric analysis; format: functional, cell-based; details: PANC-1, 96 h
# [2] = Cytotoxicity against human PC3M cells after 4 days by propidium iodide staining-based fluorometric analysis; format: functional, cell-based; details: PC-3M, 96 h
# [3] = Cytotoxicity against human LXFA 629L cells after 4 days by propidium iodide staining-based fluorometric analysis; format: functional, cell-based; details: 96 h
# [4] = Cytotoxicity against human LXFA 526L cells after 4 days by propidium iodide staining-based fluorometric analysis; format: functional, cell-based; details: 96 h
# CWR22R = assay: Cytotoxicity against human 22Rv1 cells after 4 days by propidium iodide staining-based fluorometric analysis; format: functional, cell-based; details: 22Rv1, 96 h
# [5] = Cytotoxicity against human MEXF 276L cells after 4 days by propidium iodide staining-based fluorometric analysis; format: functional, cell-based; details: MEXF276L, 96 h
# [6] = Cytotoxicity against human UXF 1138L cells after 4 days by propidium iodide staining-based fluorometric analysis; format: functional, cell-based; details: 96 h
# [7] = Cytotoxicity against human MEXF 1341L cells after 4 days by propidium iodide staining-based fluorometric analysis; format: functional, cell-based; details: 96 h
# OVCAR-3 = assay: Cytotoxicity against human OVCAR3 cells after 4 days by propidium iodide staining-based fluorometric analysis; format: functional, cell-based; details: OVCAR-3, 96 h
# [8] = Cytotoxicity against human LIXF 575L cells after 4 days by propidium iodide staining-based fluorometric analysis; format: functional, cell-based; details: 96 h
# [9] = Cytotoxicity against human MDA231 cells after 4 days by propidium iodide staining-based fluorometric analysis; format: functional, cell-based; details: MDA-MB-231, 96 h
# [10] = Cytotoxicity against human RXF 486L cells after 4 days by propidium iodide staining-based fluorometric analysis; format: functional, cell-based; details: 96 h
# [11] = Cytotoxicity against human RXF 393NL cells after 4 days by propidium iodide staining-based fluorometric analysis; format: functional, cell-based; details: 96 h
# [12] = Cytotoxicity against human PXF 698L cells after 4 days by propidium iodide staining-based fluorometric analysis; format: functional, cell-based; details: 96 h
# SAOS-2 = assay: Cytotoxicity against human Saos2 cells after 4 days by propidium iodide staining-based fluorometric analysis; format: functional, cell-based; details: SAOS-2, 96 h
# HCT-116 = assay: Cytotoxicity against human HCT116 cells after 4 days by propidium iodide staining-based fluorometric analysis; format: functional, cell-based; details: HCT-116, 96 h
# HT-29 = assay: Cytotoxicity against human HT-29 cells after 4 days by propidium iodide staining-based fluorometric analysis; format: functional, cell-based; details: HT-29, 96 h
# MKN-45 = assay: Cytotoxicity against human MKN45 cells after 4 days by propidium iodide staining-based fluorometric analysis; format: functional, cell-based; details: MKN-45, 96 h
# [13] = Cytotoxicity against human BXF 1218L cells after 4 days by propidium iodide staining-based fluorometric analysis; format: functional, cell-based; details: 96 h
# [14] = biological target: Tyrosine-protein kinase ABL1 (Homo sapiens) (UniProt P00519); assay: Inhibition of ABL1 using poly(Ala, Glu, Lys, Tyr) as substrate and [gamma33P]ATP at 1 uM after 60 mins by scintillation counting
# [15] = Cytotoxicity against human BXF T24 cells after 4 days by propidium iodide staining-based fluorometric analysis; format: functional, cell-based; details: T-24, 96 h
# MCF7 = assay: Cytotoxicity against human MCF7 cells after 4 days by propidium iodide staining-based fluorometric analysis; format: functional, cell-based; details: MCF7, 96 h
# CAL-27 = assay: Cytotoxicity against human CAL27 cells after 4 days by propidium iodide staining-based fluorometric analysis; format: functional, cell-based; details: CAL-27, 96 h
# LNCaP = assay: Cytotoxicity against human LNCAP cells after 4 days by propidium iodide staining-based fluorometric analysis; format: functional, cell-based; details: 96 h
# [16] = Cytotoxicity against human PXF 1752L cells after 4 days by propidium iodide staining-based fluorometric analysis; format: functional, cell-based; details: 96 h
# RKO = assay: Cytotoxicity against human RKO cells after 4 days by propidium iodide staining-based fluorometric analysis; format: functional, cell-based; details: 96 h
# [17] = Cytotoxicity against human MEXF 462NL cells after 4 days by propidium iodide staining-based fluorometric analysis; format: functional, cell-based; details: 96 h
# [18] = Cytotoxicity against human GXF251L cells after 4 days by propidium iodide staining-based fluorometric analysis; format: functional, cell-based; details: GXF 251L, 96 h
# [19] = Cytotoxicity against human MAXF 401NL cells after 4 days by propidium iodide staining-based fluorometric analysis; format: functional, cell-based; details: 96 h
# [20] = Cytotoxicity against human DIFI cells after 4 days by propidium iodide staining-based fluorometric analysis; format: functional, cell-based; details: 96 h
# [21] = Cytotoxicity against human BXF 1352L cells after 4 days by propidium iodide staining-based fluorometric analysis; format: functional, cell-based; details: 96 h
# [22] = Cytotoxicity against human LXFA 289L cells after 4 days by propidium iodide staining-based fluorometric analysis; format: functional, cell-based; details: 96 h
# [23] = Cytotoxicity against human OVXF 899L cells after 4 days by propidium iodide staining-based fluorometric analysis; format: functional, cell-based; details: 96 h
# DU-145 = assay: Cytotoxicity against human DU145 cells after 4 days by propidium iodide staining-based fluorometric analysis; format: functional, cell-based; details: DU-145, 96 h
# [24] = Cytotoxicity against human PXF 1118L cells after 4 days by propidium iodide staining-based fluorometric analysis; format: functional, cell-based; details: 96 h
# [25] = biological target: Hepatocyte growth factor receptor (Homo sapiens) (UniProt P08581); assay: Inhibition of MET using poly(Ala, Glu, Lys, Tyr) as substrate and [gamma33P]ATP at 1 uM after 60 mins by scintillation counting
# [26] = Cytotoxicity against human RXF 1781L cells after 4 days by propidium iodide staining-based fluorometric analysis; format: functional, cell-based; details: 96 h
# [27] = Cytotoxicity against human PAXF 546L cells after 4 days by propidium iodide staining-based fluorometric analysis; format: functional, cell-based; details: 96 h
# [28] = Cytotoxicity against human LXFL 529L cells after 4 days by propidium iodide staining-based fluorometric analysis; format: functional, cell-based; details: 96 h
# TE-671 = assay: Cytotoxicity against human TE671 cells after 4 days by propidium iodide staining-based fluorometric analysis; format: functional, cell-based; details: TE-671, 96 h
# [29] = Cytotoxicity against human CXF 269L cells after 4 days by propidium iodide staining-based fluorometric analysis; format: functional, cell-based; details: 96 h
# [30] = Cytotoxicity against human LXFL 1121L cells after 4 days by propidium iodide staining-based fluorometric analysis; format: functional, cell-based; details: 96 h
# [31] = biological target: Receptor tyrosine-protein kinase erbB-2 (Homo sapiens) (UniProt P04626); assay: Inhibition of Erbb2 using poly(Glu,Tyr)4:1 as substrate and [gamma33P]ATP at 1 uM after 60 mins by scintillation counting
# [32] = biological target: Vascular endothelial growth factor receptor 2 (Homo sapiens) (UniProt P35968); assay: Inhibition of VEGFR2 using poly(Glu,Tyr)4:1 as substrate and [gamma33P]ATP at 1 uM after 60 mins by scintillation counting
# [33] = biological target: T1, Epidermal growth factor receptor (Homo sapiens, UniProt P00533); assay: Inhibition of EGFR using poly(Glu,Tyr)4:1 as substrate and [gamma33P]ATP at 1 uM after 60 mins by scintillation counting
# [34] = biological target: T1, Epidermal growth factor receptor; assay: Inhibition of EGFR using poly(Glu,Tyr)4:1 as substrate and [gamma33P]ATP after 60 mins by scintillation counting
# Sequence of Hepatocyte growth factor receptor (Homo sapiens) (P08581 whole entry): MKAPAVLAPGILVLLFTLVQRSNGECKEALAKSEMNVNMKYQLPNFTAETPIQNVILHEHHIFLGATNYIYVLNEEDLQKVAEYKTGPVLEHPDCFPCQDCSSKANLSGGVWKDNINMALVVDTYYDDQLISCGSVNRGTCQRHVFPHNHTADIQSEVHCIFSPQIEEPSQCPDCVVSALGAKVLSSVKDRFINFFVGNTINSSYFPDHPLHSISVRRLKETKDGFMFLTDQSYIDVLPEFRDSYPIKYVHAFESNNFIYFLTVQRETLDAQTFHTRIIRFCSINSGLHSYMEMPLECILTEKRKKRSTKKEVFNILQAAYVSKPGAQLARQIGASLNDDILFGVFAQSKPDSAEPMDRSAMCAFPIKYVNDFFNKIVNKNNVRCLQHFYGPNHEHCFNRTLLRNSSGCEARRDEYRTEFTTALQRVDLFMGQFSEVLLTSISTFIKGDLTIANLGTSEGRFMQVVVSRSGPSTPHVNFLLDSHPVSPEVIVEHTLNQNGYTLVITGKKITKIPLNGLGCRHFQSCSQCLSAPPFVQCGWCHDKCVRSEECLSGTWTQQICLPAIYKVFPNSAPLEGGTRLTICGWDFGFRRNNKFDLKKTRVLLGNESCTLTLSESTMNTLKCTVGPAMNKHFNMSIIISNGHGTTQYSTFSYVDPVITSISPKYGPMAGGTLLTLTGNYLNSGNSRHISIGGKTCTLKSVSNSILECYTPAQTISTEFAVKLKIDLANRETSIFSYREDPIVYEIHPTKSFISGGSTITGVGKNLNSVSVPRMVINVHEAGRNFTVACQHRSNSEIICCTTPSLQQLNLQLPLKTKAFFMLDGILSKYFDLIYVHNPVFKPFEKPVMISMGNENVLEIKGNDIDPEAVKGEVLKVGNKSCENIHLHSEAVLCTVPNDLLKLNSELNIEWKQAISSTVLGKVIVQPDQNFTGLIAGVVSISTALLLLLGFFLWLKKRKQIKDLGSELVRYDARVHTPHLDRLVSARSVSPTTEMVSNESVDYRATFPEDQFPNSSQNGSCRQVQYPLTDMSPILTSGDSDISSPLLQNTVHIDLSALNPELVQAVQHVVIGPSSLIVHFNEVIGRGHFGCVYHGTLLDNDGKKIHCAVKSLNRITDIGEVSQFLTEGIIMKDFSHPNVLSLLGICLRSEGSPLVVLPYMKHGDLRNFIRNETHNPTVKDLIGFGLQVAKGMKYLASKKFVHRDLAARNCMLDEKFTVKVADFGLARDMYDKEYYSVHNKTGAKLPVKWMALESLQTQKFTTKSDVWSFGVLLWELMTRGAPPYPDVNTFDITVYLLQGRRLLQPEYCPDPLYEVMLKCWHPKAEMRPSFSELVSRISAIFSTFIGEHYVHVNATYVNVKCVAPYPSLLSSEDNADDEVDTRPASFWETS
# Sequence of Tyrosine-protein kinase ABL1 (Homo sapiens) (P00519 whole entry): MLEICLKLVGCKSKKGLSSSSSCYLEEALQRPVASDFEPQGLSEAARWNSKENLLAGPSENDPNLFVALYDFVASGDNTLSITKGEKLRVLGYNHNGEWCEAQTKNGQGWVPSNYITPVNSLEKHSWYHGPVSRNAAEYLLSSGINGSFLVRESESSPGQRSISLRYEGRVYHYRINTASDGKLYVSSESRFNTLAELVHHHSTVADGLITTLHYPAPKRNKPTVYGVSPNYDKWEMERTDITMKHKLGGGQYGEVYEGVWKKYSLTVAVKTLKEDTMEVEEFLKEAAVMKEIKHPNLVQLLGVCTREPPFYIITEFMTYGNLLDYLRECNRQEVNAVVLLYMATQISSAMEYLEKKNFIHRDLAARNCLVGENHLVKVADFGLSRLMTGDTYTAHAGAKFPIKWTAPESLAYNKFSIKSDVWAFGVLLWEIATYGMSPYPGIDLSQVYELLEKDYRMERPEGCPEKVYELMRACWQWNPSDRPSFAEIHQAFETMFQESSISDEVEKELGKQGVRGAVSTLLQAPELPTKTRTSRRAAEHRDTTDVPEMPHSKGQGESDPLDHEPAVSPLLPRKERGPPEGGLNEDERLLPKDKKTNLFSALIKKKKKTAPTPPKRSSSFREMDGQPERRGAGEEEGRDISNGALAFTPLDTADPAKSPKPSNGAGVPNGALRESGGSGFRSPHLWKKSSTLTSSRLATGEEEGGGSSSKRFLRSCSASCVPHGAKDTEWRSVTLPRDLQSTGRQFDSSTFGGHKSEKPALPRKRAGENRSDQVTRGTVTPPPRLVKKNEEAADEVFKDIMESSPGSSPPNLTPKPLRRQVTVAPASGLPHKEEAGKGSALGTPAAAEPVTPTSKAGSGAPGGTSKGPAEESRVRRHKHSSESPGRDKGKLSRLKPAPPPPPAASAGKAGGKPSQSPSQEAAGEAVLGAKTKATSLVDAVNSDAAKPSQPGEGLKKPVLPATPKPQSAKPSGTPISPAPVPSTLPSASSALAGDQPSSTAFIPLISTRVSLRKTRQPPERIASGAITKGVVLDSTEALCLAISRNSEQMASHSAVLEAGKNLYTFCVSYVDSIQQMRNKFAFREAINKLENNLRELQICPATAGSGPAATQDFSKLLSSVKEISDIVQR
# T1 sequence (P00533 whole entry): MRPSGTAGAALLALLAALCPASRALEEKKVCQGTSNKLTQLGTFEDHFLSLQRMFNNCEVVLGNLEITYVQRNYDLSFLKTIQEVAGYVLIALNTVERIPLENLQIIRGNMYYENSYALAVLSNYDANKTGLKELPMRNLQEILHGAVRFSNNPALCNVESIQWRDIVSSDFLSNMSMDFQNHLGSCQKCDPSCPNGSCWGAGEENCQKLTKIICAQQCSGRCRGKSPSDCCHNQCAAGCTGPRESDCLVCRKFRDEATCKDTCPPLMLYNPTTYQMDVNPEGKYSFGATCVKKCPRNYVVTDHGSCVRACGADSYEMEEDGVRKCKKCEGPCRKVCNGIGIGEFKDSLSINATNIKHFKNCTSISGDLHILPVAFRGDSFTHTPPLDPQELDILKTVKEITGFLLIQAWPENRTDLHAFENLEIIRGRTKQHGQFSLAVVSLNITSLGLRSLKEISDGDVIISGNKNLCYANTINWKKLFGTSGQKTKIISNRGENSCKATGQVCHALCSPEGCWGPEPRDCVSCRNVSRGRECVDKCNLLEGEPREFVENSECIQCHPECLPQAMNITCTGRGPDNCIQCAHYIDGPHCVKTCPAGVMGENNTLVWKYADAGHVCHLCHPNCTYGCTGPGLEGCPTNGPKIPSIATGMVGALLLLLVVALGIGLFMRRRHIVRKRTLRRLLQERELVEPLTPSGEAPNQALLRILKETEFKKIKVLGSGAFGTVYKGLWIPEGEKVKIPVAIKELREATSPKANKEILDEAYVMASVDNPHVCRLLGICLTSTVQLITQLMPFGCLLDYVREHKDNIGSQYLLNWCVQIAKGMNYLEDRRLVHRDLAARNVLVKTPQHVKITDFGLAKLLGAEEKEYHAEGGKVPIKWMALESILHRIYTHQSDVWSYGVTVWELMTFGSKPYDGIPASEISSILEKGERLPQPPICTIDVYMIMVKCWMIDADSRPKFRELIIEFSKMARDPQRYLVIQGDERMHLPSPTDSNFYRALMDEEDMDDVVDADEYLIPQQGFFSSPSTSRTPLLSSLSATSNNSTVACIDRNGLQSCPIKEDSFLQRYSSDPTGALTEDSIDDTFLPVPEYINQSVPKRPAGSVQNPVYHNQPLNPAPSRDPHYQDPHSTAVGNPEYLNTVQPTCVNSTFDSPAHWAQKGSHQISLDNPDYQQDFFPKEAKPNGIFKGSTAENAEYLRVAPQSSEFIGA
# Sequence of Receptor tyrosine-protein kinase erbB-2 (Homo sapiens) (P04626 whole entry): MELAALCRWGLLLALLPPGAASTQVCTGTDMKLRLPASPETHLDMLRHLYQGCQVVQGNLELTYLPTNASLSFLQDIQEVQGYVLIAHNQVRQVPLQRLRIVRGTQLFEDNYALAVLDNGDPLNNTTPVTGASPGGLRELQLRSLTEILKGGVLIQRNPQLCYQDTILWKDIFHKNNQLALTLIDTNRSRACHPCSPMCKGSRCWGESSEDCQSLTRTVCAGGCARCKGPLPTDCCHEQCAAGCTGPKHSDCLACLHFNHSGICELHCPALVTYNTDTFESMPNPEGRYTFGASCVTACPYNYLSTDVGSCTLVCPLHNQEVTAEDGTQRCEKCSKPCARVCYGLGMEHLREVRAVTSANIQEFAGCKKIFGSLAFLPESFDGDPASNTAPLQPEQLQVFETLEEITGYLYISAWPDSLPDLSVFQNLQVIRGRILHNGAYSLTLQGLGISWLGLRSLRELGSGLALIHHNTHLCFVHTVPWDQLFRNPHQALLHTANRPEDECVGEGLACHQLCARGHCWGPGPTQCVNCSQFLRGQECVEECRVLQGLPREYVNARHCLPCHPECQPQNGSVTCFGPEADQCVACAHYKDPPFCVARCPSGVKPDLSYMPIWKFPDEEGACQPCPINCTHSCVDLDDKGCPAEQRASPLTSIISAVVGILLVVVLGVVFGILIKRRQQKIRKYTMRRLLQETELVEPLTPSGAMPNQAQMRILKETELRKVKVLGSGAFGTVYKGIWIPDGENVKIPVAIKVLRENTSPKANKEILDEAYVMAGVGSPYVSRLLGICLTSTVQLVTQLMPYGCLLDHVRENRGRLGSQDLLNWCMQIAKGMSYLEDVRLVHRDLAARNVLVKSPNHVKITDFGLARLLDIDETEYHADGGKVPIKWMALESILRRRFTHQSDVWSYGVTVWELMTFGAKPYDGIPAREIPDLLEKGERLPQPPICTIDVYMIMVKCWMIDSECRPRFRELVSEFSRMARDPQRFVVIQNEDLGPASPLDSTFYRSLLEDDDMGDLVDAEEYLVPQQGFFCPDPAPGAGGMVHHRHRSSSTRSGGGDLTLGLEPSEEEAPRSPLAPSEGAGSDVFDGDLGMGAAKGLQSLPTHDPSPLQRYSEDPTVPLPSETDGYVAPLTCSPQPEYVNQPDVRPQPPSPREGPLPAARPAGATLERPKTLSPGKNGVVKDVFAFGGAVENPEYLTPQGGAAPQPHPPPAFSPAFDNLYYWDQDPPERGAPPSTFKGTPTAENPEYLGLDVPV
smiles,measurement,setting,value
CS(=O)(=O)CCNCc1ccc(-c2ccc3ncnc(Nc4ccc(OCc5cccc(F)c5)c(Cl)c4)c3c2)o1 [LAPATINIB],IC50,[1],11.1 µM
same,IC50,NCI-H460,13.5 µM
same,IC50,PANC-1,8.12 µM
same,IC50,[2],4.55 µM
same,IC50,[3],2.87 µM
same,IC50,[4],4.21 µM
same,IC50,CWR22R,6.06 µM
same,IC50,[5],11.4 µM
same,IC50,[6],4.4 µM
same,IC50,[7],4.85 µM
same,IC50,OVCAR-3,13.4 µM
same,IC50,[8],7.18 µM
same,IC50,[9],7.7 µM
same,IC50,[10],9.1 µM
same,IC50,[11],7.77 µM
same,IC50,[12],9.49 µM
same,IC50,SAOS-2; read-out: IC50,9.38 µM
same,IC50,HCT-116,13.1 µM
same,IC50,HT-29,4.62 µM
same,IC50,MKN-45,11.5 µM
same,IC50,[13],11.8 µM
same,inhibition,[14],inactive
same,IC50,[15],9.65 µM
same,IC50,MCF7,4.83 µM
same,IC50,CAL-27,0.53 µM
same,IC50,LNCaP,3.68 µM
same,IC50,[16],9.46 µM
same,IC50,RKO,5.35 µM
same,IC50,[17],10.1 µM
same,IC50,[18],1.48 µM
same,IC50,[19],5.8 µM
same,IC50,[20],0.235 µM
same,IC50,[21],11.5 µM
same,IC50,[22],5.79 µM
same,IC50,[23],3.35 µM
same,IC50,DU-145,2.99 µM
same,IC50,[24],6.86 µM
same,inhibition,[25],inactive
same,IC50,[26],7.67 µM
same,IC50,[27],6.12 µM
same,IC50,[28],3.51 µM
same,IC50,TE-671,11 µM
same,IC50,[29],8.36 µM
same,IC50,[30],7.73 µM
C#Cc1cccc(Nc2ncnc3cc(OCCOC)c(OCCOC)cc23)c1 [ERLOTINIB],IC50,[1],64.3 µM
same,IC50,NCI-H460,74.3 µM
same,IC50,PANC-1,75.8 µM
same,IC50,[2],17.2 µM
same,IC50,[3],0.66 µM
same,IC50,[4],100 µM
same,IC50,CWR22R,100 µM
same,IC50,[5],18.6 µM
same,IC50,[6],24.5 µM
same,IC50,[7],30.1 µM
same,IC50,OVCAR-3,100 µM
same,IC50,[8],47.2 µM
same,IC50,[9],34.5 µM
same,IC50,[10],10 µM
same,IC50,[11],45.6 µM
same,IC50,[12],36.4 µM
same,IC50,SAOS-2,21 µM
same,IC50,HCT-116,65.8 µM
same,IC50,HT-29,100 µM
same,IC50,MKN-45,76.7 µM
same,IC50,[13],96 µM
same,inhibition,[14],inactive
same,IC50,[15],13.9 µM
same,IC50,MCF7,100 µM
same,IC50,CAL-27,0.239 µM
same,IC50,LNCaP,6.63 µM
same,IC50,[16],31.6 µM
same,IC50,RKO,100 µM
same,IC50,[17],100 µM
same,IC50,[18],0.369 µM
same,IC50,[19],25 µM
same,IC50,[20],0.14 µM
same,IC50,[21],87.8 µM
same,IC50,[22],1.78 µM
same,IC50,[23],8.77 µM
same,IC50,DU-145,0.966 µM
same,IC50,[24],76.7 µM
same,inhibition,[25],inactive
same,IC50,[26],76.7 µM
same,IC50,[27],10 µM
same,IC50,[28],17.4 µM
same,IC50,TE-671,100 µM
same,IC50,[29],16 µM
same,IC50,[30],34.6 µM
O=C(c1cc2ccccc2[nH]1)c1cc2c(Nc3ccc(F)c(Cl)c3)ncnc2s1,IC50,[1],17.6 µM
same,IC50,NCI-H460,5.82 µM
same,IC50,PANC-1,7.01 µM
same,IC50,[2],5.77 µM
same,IC50,[3],4.88 µM
same,IC50,[4],10.7 µM
same,IC50,CWR22R,5.48 µM
same,IC50,[5],10.2 µM
same,IC50,[6],4.42 µM
same,inhibition,[31],80%
same,IC50,[7],10.8 µM
same,IC50,OVCAR-3,8.45 µM
same,IC50,[8],8.15 µM
same,IC50,[9],8.04 µM
same,IC50,[10],5.5 µM
same,IC50,[11],11.8 µM
same,IC50,[12],14.3 µM
same,IC50,SAOS-2; read-out: IC50,11.4 µM
same,IC50,HCT-116,8.39 µM
same,inhibition,[32],15%
same,IC50,HT-29,7.83 µM
same,IC50,MKN-45,12.5 µM
same,IC50,[13],9.13 µM
same,inhibition,[14],inactive
same,IC50,[15],11.4 µM
same,inhibition,[33],100%
same,IC50,MCF7,6.96 µM
same,IC50,CAL-27,2.61 µM
same,IC50,LNCaP,6.11 µM
same,IC50,[16],13.5 µM
same,IC50,RKO,7.29 µM
same,IC50,[17],8.11 µM
same,IC50,[18],2.76 µM
same,IC50,[19],3.89 µM
same,IC50,[20],1.39 µM
same,IC50,[21],11.3 µM
same,IC50,[34],0.00554 µM
same,IC50,[22],6.68 µM
same,IC50,[23],5.56 µM
same,IC50,DU-145,4.36 µM
same,IC50,[24],17.9 µM
same,inhibition,[25],inactive
same,IC50,[26],9.05 µM
same,IC50,[27],11.6 µM
same,IC50,[28],8.61 µM
same,IC50,TE-671,14.1 µM
same,IC50,[29],10.8 µM
same,IC50,[30],9.77 µM
